Broadly, the MIC is the least concentration at which growth counts as inhibited.

Molecules are shown by their SMILES. Values after ≈ are worked out from the molar mass of the structure shown. Where two headings read alike, the source gives them in different places. A value given as a limit tells only on which side of the number the result lay.

Test [1] has as its system S. aureus ATCC 10390. The experiment in a line: Estimated MIC, solution-phase microdilution absorbance assay with crude macroarray spot stock solutions. It counts as cell-based, Staphylococcus aureus. The note with it: for MIC: Staphylococcus aureus, ATCC10390, 12 h. How it is done: Spots from a new 69 member chalcone macroarray as well as the three heterocyclic macroarrays prepared earlier were punched out, cleaved, and eluted with acetonitrile. The resulting solutions were concentrated to a residue that was taken up in DMSO to form 2 mM stock solutions.
From the stock solutions, microdilution assays in a 96 well plate starting at 50 μM were performed in quadruplicate. Each well contained 5 μL of the stock solution as well as 195 μL of a S. aureus culture. The turbidity of each well was measured after incubating 12 hours using a standard plate reader. Active compounds can be further diluted and the assay repeated.
To acquire more quantitative antibacterial activity data about our compounds and verify our on-support assay results, we performed solution-phase absorbance assays that provided estimates of the minimum inhibitory concentration (MIC) of each macroarray member against S. aureus. Stock solutions (ca. 2 mM) were generated by cleaving and eluting 198 individual compounds from chalcone (3) and heterocyclic macroarrays (5, 7, and 8). […] The good overall purities of the crude macroarray compounds allowed for reasonable estimations of MICs.
For estimated MIC determination, DMSO was added to the dried compound residue obtained from a single spot to afford ca. 100 μL of a 2 mM stock solution. Aliquots (5 μL) of these solutions were added to a 96-well plate, followed by 195 μL of diluted S. aureus 10390 (10^6 CFUs/mL) to yield ca. 50 μM final concentrations. The plates were swirled for 1 h to ensure compound dissolution, incubated for 12 h at 37° C., and the absorbance at 595 nm was recorded using a plate reader. […] Actual MIC values were determined for lead compounds resynthesized in solution using an analogous procedure with solutions of known concentration (see).
Preparation of spot samples and controls. An aliquot of DMSO (ca. 100 μL depending on the loading of the parent hydroxyacetophenone) was added to the dried compound residue obtained after TFA cleavage and elution from a single spot. This afforded a 2.0 mM “spot stock” solution for each spot. A small aliquot of each “spot stock” solution was saved for subsequent LC-MS analysis.
For estimated MIC screens, 5.0 μL portions of the “spot stock” solutions were added to the appropriate wells in a sterile, polystyrene 96-well plate to yield ca. 50 μM solutions (dependent on the initial loading of hydroxyacetopheneone and compound purity). To the positive and negative control wells, 5.0 μL of DMSO were added (positive controls contained bacteria but no compound, while negative controls had neither compound nor bacteria). All estimated MIC assays were performed in quadruplicate. Note: the MIC value is defined as the lowest concentration where no bacterial growth occurs.
Representative estimated MIC assay procedure. This assay procedure is based in part on the method reported by Strøm et al.^xiii A 400 μL portion of overnight S. aureus 10390 culture was diluted with 100 mL of sterile LB broth to give ca. 10^6 CFUs per mL. Aliquots (195 μL) of this solution were added to all of the wells in a sterile 96-well plate (except for the negative control wells; 195 μL of sterile LB broth were added to these wells). The plates were placed on an orbital shaker table and gently swirled for 1 h to ensure compound dissolution, and then incubated (without shaking) for 12 h at 37° C. The absorbance at 595 nm was recorded using a plate reader.
The original “spot stock” solutions of these compounds were diluted with DMSO to give ca. 25 and 13 μM final concentrations and tested for inhibitory activities using the procedure described above.

Test [2] has as its system S. aureus ATCC 10390. Put plainly: Agar overlay TTC assay. The following applies: macroarray copies, 15 mL agar. It counts as cell-based, Staphylococcus aureus. The source says: To take advantage of the spatially-addressed nature of the macroarray format, an agar overlay assay was employed that utilizes TTC (triphenyl tetrazolium chloride) as a visualization agent (FIG. 2[…].; Lu, A. T.; Solas, D. W.; Gore, […].; Coffin, […].; Wang, […].; Look, G. C.; Campbell, […]. Antimicrob. Agents Chemother. 1998, 1447-1453. Unfortunately, during macroarray synthesis the planarity of the support is not fully maintained, and small wrinkles develop in this particular assay. This problem was solved by using an adaptation of the common Western Blot technique to copy the macroarray members from the support to fresh wrinkle-free sheets while maintaining the spatially-addressed nature. This transfer can be completed in 90 seconds and four copies can be made at a time, however to date, it is applicable only for smaller macroarrays (6 cm×6 cm, 16 spots). The full macroarray was easily divided into these dimensions. The copies allowed for replicates to be made, and the original, which cannot be used in the assay, is used to validate the compounds by LCMS. As an added feature, the sensitivity of the assay was tuned by simply changing the amount of agar applied to the array. The copies generated in the assay can also be easily used to screened against multiple organisms. […] This assay format also took advantage of the spatially addressed nature of the arrays (FIG. 2C). […]

Consider `O=C(/C=C/c1cc(C(F)(F)F)cc(C(F)(F)F)c1)c1cccc(O)c1` [Compound 4Bv, 3′-hydroxy-3,5-bis(trifluoromethyl)chalcone], for which, in the test on S. aureus ATCC 10390 [1] (12.5 μM, macroarray stock solutions diluted four fold), the “inhibition of S. aureus at the 12.5 μM level” value is on record as “complete inhibition”. Further, the MIC with S. aureus ATCC 10390 [1] (Table 2, serial dilution of stock solutions obtained by SPOT-synthesis, read-out: estimated MIC range) was 6.25 to 12.5 µM (≈ 2.25 to 4.5 µg/mL); in the test on S. aureus ATCC 10390 [1] (Table 3, serial dilution of spot stock solutions of crude macroarray compounds, read-out: S. aureus Estimated MIC range), less than 12.5 µM. In the test on S. aureus ATCC 10390 [2], the “relative activity in agar overlay TTC assay” value is recorded as “most active”.

The values are drawn from patent US8227616B2, “Cyanopyridine antibacterial agents and methods of use thereof” (Wisconsin Alumni Research Foundation, priority 2006, dated 2012).
